Results from US20040024033A1 (priority 1998, published 2004).
Like-named read-outs stand apart in the source and are kept apart here.

Key:
[1] = tested on: human PC-3M prostate carcinoma cells; assay: Antitumor effect against orthotopically injected PC-3M cells; format: in vivo, male BALB/c nude mice
Experimental: Human prostate carcinoma PC-3M cells (1×10^6 cells per 20 μl phosphate buffered saline) are injected into the left […] of the prostate of each animal (n=6-9/group) according the method previously described (see Stephenson et al., J. Natl. Cancer Inst. 84, 951-7 (1992)). Treatment is started on day 14 after cell injection. At this time point a mean tumor weight of ˜20 mg is established. Epothilone B is administered either once or once weekly. Mice are sacrificed 42 days post tumor inoculation, and the prostates are carefully removed, dissected free of adhering tissue and weighed. […] Mesenteric lymph nodes are examined for the presence of metastases, dissected free of adhering tissue and weighed.
Tumor weight and body weights are monitored once or twice weekly. All treatments are administered intravenously (i.v.) and are initiated 14 days post cell injection. Treatment with epothilone B varies the dose and frequency of administration. Antitumor activity is expressed as T/C% (mean tumor weight of treated animals divided by the mean tumor weight of control animals multiplied by 100).
1×10^6 PC-3M cells in 20 μL of PBS are injected into the […] of the prostate of each male nude mouse (n=9 per group). Treatments are started on day 14 after tumor cell injection. epothilone B is administered i.v., once at 6 or 8 mg/kg, or once per week at 4 or 5 mg/kg. Antitumor activity is expressed as T/C% (mean tumor weight of treated animals divided by the mean of tumor weight of control animals multiplied by 100). Differences in body weights consider only animals surviving to the end of the experiment (day 42). Statistical analyses on A body weight uses paired t-tests comparing body weights before treatment to the end of treatment; mice weigh˜20-25 g at the start of treatment. Not significant is indicated by the abbreviation ,ns”.

[2] = tested on: human COLO 205 colon tumors; format: in vivo, female BALB/c nude mice; details: 4 mg/kg, day 32
Experimental: Female or male BALB/c nu/nu (nude) mice are kept under sterile conditions (10 to 12 mice per Type III cage) with free access to food and water. Mice weigh between 20 and 25 grams at the time of tumor implantation. Tumors are established by subcutaneous injection of cells (minimum 2×10^6 cells in 100 μl PBS or medium) in carrier mice (4-8 mice per cell line). The resulting tumors are serially passaged for a minimum of three consecutive transplantations prior to start of treatment. Tumor fragments (approx. 25 mg) are implanted s.c. into the left flank of animals with a 13-gauge trocar needle while the mice are exposed to Forene (Abbott, Switzerland) anesthesia.
Tumor growth and body weights are monitored once or twice weekly. All treatments are administered intravenously (i.v.) and are initiated when a mean tumor volume of approximately 100 to 250 mm^3 is attained, depending upon the tumor type. Tumor volumes are determined using the formula […] (see Cancer Chemother. Pharmacol. 24:148-154, [1989]). Treatments with epothilone B vary the dose and the frequency of administration. Comparator agents are administered according to previously determined optimal treatment regimens. In addition to presenting changes in tumor volumes over the course of treatment, antitumor activity is expressed as T/C% (mean increase of tumor volumes of treated animals divided by the mean increase of tumor volumes of control animals multiplied by 100). Tumor regression (%) represents the smallest mean tumor volume compared to the mean tumor volume at the start of treatment, according to the formula Regression (%)=(1−Vend/Vstart)×100 (Vend=final mean tumor volume, Vstart=mean tumor volume at the start of treatment. Any animals in which the tumor has reached a size exceeding approximately 1.5 to 2.5 cm^3 are sacrificed. Details can be found below.
Tumor fragments of approximately 25 mg are implanted into the left flank of each female nude mouse (n=7 per group); a subcutaneous estrogen pellet is placed on the opposite flank. Treatments are started on day 14 after tumor transplantation. epothilone B is administered at 4 mg/kg, i.v., either once or once per week (days 14, 21, 28) or every second week (days 14 and 28). 5-fluorouracil is administered i.v. at 75 mg/kg on days 14, 21, 28. Data presented are from animals surviving to day 32, four days after the last treatments. Antitumor activity is expressed as T/C% (mean increase of tumor volumes of treated animals divided by the mean increase of tumor volumes of control animals multiplied by 100). Tumor regression (%) represents the final mean tumor volume compared to the mean tumor volume at the start of treatment. Changes (A) in tumor volumes represent the tumor volume on the last treatment day minus the tumor volume on the first treatment day.

[3] = Determination of the single i.v. dose MTD in nude mice; format: in vivo, female BALB/c nude mice; details: mean ± SD
Experimental: For the MTD determination, female BALB/c nude mice or BALB/c mice (obtained from Novartis Animal Farm, Sisseln, Switzerland) are treated once intravenously with epothilone B (n=3 per dose group). The dosage is increased (2, 4, 6, 8, 10 and 12 mg/kg) and the mice are observed for the presentation of overt toxic effects for 10 days after drug treatment.
Epothilone B is given as a single i.v. bolus dose at 2, 4, 6, 8, 10 or 12 mg/kg. Survival and body weights of the mice are monitored daily. Changes (A) in body weights are determined comparing the last measured body weight to that before treatment.

[4] = tested on: A549 non small cell lung tumors
Experimental: 3-10 million cells are implanted s.c. into the right axillary (lateral) region of outbred athymic (nu/nu) mice, and are allowed to grow until a tumor volume of approximately 100 mm^3 is established. Epothilone B is formulated in 1% DMSO in 5% glucose in distilled water (D5W), and administered i.v. either once only, once per week, 3 times per week, or 5 times per week. Positive controls are carried out with clinical formulations of TAXOL® diluted 6 fold with D5W and administered i.v. 3×/week.
Antitumor activity is expressed as % T/C (comparing Δ tumor volumes for treatment group to vehicle control group) at the end of the experiment. Regressions are calculated using the formula: −(T/T0−1)×100% , where T is the tumor volume for the treatment group at the end of the experiment, and T0 is the tumor volume at the beginning of the experiment. Statistical significance is evaluated using a one-tailed Student's t-test.
Treatments are started on day 16 post implantation (10 million cells/animal). Epothilone B is administered i.v. once at 6 mg/kg (day 16), once weekly at 4 mg/kg (days 16, 23, and 30), three times per week at 1.5 mg/kg (days 16, 18, 21, 23, 25, 28, 30, 32, and 35), or five times per week at 0.5 mg/kg (days 16-18, 21-25, 28-32, and 35-36). TAXOL® is administered i.v. three times per week at 20 mg/kg (days 16, 18, 21, 23, 25, 28, 30, 32, and 35) as split doses of 10 mg/kg given one hour apart. Vehicle control (1% DMSO/D5W) is administered i.v. three times per week (days 16, 18, 21, 23, 25, 28, 30, 32, and 35). All final data are recorded on day 37. A single asterisk (*) indicates p<0.05, and a double asterisk (**) indicates p<0.01, using a one-tailed Student's t-Test.

Compound: C/C(=C\c1csc(C)n1)[C@@H]1C[C@@H]2O[C@]2(C)CCC[C@H](C)[C@H](O)[C@@H](C)C(=O)C(C)(C)[C@@H](O)CC(=O)O1 [epothilone B]
- Δ Body Weight ([1]; 4 mg/kg, i.v. once per week): -1.2 g
- Δ Body Weight ([1]; 5 mg/kg, i.v. once per week): -6.8 g
- Δ Body Weight ([1]; 6 mg/kg, i.v. once): -1.4 g
- Δ Body Weight ([1]; 8 mg/kg, i.v. once): -5.2 g
- T/C ([2]; i.v. every 7 days): Regres-
- T/C ([2]; i.v. every 14 days): Regres-
- T/C ([2]; i.v. once): Regres-
- Body Weight Δ ([3]; 2 mg/kg single i.v. bolus): 1.0 ± 0.5 g
- Body Weight Δ ([3]; 4 mg/kg single i.v. bolus): -0.4 ± 0.6 g
- Body Weight Δ ([3]; 6 mg/kg single i.v. bolus): -1.0 ± 0.5 g
- Body Weight Δ ([3]; 8 mg/kg single i.v. bolus): -3.8 ± 2.7 g
- Body Weight Δ ([3]; 10 mg/kg single i.v. bolus): -5.6 ± 3.3 g
- Body Weight Δ ([3]; 12 mg/kg single i.v. bolus): -5.1 ± 0.6 g
- body weight loss ([4]; 0.5 mg/kg i.v. 5x/week): 23%
- Dead/Total ([4]; 1.5 mg/kg i.v. 3x/week): all animals have to be euthanatized in the first week of the experiment due to toxicity
- body weight loss ([4]; 4 mg/kg i.v. 1x/week): 13%
- % Regression ([4]; 6 mg/kg i.v. once, day 37): none
- % T/C ([4]; 6 mg/kg i.v. once, day 37): 41%
- Dead/Total ([4]; 6 mg/kg, i.v. once): 0/8
